Data as given in article PMC11679724, “Novel Quinoline- and Naphthalene-Incorporated Hydrazineylidene–Propenamide Analogues as Antidiabetic Agents: Design, Synthesis, and Computational Studies” (Pharmaceuticals, 2024).

Assays:
[1] = target: T1, Porcine pancreatic amylase (Sus scrofa, UniProt P00690); experiment: In vitro α-amylase inhibition assay (starch substrate); format: biochemical; conditions: mean ± SE; starch 1%
T1 sequence (P00690 16-511): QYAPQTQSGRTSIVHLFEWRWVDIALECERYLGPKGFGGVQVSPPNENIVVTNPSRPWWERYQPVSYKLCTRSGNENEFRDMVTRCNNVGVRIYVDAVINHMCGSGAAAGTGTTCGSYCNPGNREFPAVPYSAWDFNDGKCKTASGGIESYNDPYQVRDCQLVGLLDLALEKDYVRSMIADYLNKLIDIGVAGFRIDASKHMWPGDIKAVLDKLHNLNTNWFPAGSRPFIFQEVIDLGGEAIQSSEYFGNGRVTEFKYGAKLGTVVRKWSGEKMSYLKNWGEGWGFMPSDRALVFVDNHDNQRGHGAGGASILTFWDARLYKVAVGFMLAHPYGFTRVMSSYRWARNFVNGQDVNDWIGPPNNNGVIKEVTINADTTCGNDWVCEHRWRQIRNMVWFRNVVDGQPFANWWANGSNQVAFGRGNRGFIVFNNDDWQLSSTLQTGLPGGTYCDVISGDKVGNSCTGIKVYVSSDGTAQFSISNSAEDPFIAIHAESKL
Procedure: (§1) Porcine pancreatic amylase, yeast α-glucosidase, and human recombinant aldose reductase were tested for enzyme inhibition using various substrates, such as starch (1%), pNPG (0.5 mM), and DL-glyceraldehyde (5 mM) for each enzyme. By comparing changes in the test sample absorbance levels to control values and computing inhibition percentages using the following formula, the degree of inhibition was ascertained: Inhibition (%) = [A×(control)] − [{A × (sample)}/{A × (control)} × 100].

[2] = target: human recombinant aldose reductase (Homo sapiens, UniProt P15121); experiment: In vitro aldose reductase inhibition assay (DL-glyceraldehyde substrate); format: biochemical
Procedure: as §1

[3] = system: α-glucosidase (PDB ID: 3A4A); set-up: method as in doi:10.3390/separations9090262, PMID 35335251; conditions: docking of previous study; cited from earlier work
α-amylase (PDB-ID 1DHK) = system: α-amylase (PDB-ID 1DHK); set-up: method as in doi:10.3390/separations9090262, PMID 35335251; conditions: docking of previous study; cited from earlier work
[4] = system: aldose reductase (PDB ID: 1IEI); set-up: method as in doi:10.3390/separations9090262, PMID 35335251; conditions: docking of previous study; cited from earlier work
[5] = mean ± SE, DL-glyceraldehyde 5 mM

| Compound | IC50 [1] [µM] | IC50 [2, 5] [µM] | IC50 ([2]; µg/mL value restated in µM) [µM] | binding affinity against α-glucosidase [3] [kcal/mol] | binding affinity against α-amylase (α-amylase (PDB-ID 1DHK)) [kcal/mol] | binding affinity against aldose reductase [4] [kcal/mol] |
| --- | --- | --- | --- | --- | --- | --- |
| N#CC(C(=O)Nc1ccc(C(N)=O)cc1)C(=NNC(=O)COc1ccnc2ccccc12)Nc1ccccc1 (centres unmarked) [Compound 7b, 4-(2-cyano-3-(phenylamino)-3-(2-(2-(quinolin-4-yloxy)acetyl)hydrazineylidene)propanamido)benzamide] | 37.3 | 40.6 |  |  |  |  |
| CC(=O)c1ccc(NC(=O)C(C#N)/C(=N/NC(=O)COc2ccnc3ccccc23)Nc2ccccc2)cc1 (centres unmarked) [Compound 7e, N-(4-acetylphenyl)-2-cyano-3-(phenylamino)-3-(2-(2-(quinolin-4-yloxy)acetyl) hydrazineylidene)propenamide] | 38.4 | 43 |  |  |  |  |
| CCN/C(=N\NC(=O)COc1ccc2ccccc2c1)C(C#N)C(=O)Nc1ccc(C(C)=O)cc1 (centres unmarked) [Compound 7f, N-(4-acetylphenyl)-2-cyano-3-(ethylamino)-3-(2-(2-(naphthalen-2-yloxy)acetyl) hydrazineylidene)propenamide] | 61.8 | 42.8 |  |  |  |  |
| CC(=O)c1ccc(NC(=O)C(C#N)/C(=N/NC(=O)COc2ccc3ccccc3c2)Nc2ccccc2)cc1 (centres unmarked) [Compound 7d, N-(4-acetylphenyl)-2-cyano-3-(2-(2-(naphthalen-2-yloxy)acetyl)hydrazineylidene)-3-(phenylamino)propenamide] | 45.7 | 33.6 |  |  |  |  |
| N#CC(C(=O)Nc1ccc(C(N)=O)cc1)C(=NNC(=O)COc1ccc2ccccc2c1)Nc1ccccc1 (centres unmarked) [Compound 7a, 4-(2-cyano-3-(2-(2-(naphthalen-2-yloxy)acetyl)hydrazineylidene)-3-(phenylamino)propanamido)benzamide] | 43.1 | 42.6 |  |  |  |  |
| CS/C(Nc1ccccc1)=C(\C#N)C(=O)Nc1ccc(C(N)=O)cc1 [Compound 5a] | 94 | 71.3 |  |  |  |  |
| CCN/C(=N\NC(=O)COc1ccnc2ccccc12)C(C#N)C(=O)Nc1ccc(C(C)=O)cc1 (centres unmarked) [Compound 7g, N-(4-acetylphenyl)-2-cyano-3-(ethylamino)-3-(2-(2-(quinolin-4-yloxy)acetyl) hydrazineylidene)propenamide] | 36.3 | 25.7 | 25.8 |  |  |  |
| O=C(O)/C=C/c1ccc(O)c(O)c1 [caffeic acid] |  |  |  | -8.2 | -8.1 | -7.4 |
| CCNC(=NNC(=O)COc1ccc2ccccc2c1)C(C#N)C(=O)Nc1ccc(C(N)=O)cc1 (centres unmarked) [Compound 7c, 4-(2-cyano-3-(ethylamino)-3-(2-(2-(naphthalen-2-yloxy)acetyl)hydrazineylidene)propanamido)benzamide] | 57.1 | 50.8 |  |  |  |  |
